Measurements as given in BigSolDB 2.1.

NC(=O)Nc1ccccc1
solubility (mole fraction)
Conditions	283.15 K	288.15 K	293.15 K	298.15 K	303.15 K	308.15 K	313.15 K	318.15 K	323.15 K
in 1,2-dichloroethane	0.000433	0.000528	0.000706	0.000952	0.0012	0.00151	0.002	0.00257	0.00315
in 1,4-dioxane	–	0.0128	0.0152	0.0183	0.022	0.0276	0.0348	0.0433	0.0525
in DMF	0.205	0.212	0.22	0.229	0.24	0.253	0.266	0.282	0.3
in DMSO	–	–	0.192	0.199	0.207	0.217	0.229	0.244	0.262
in NMP	0.0457	0.0517	0.0596	0.0686	0.0787	0.0898	0.101	0.115	0.13
in acetonitrile	0.00622	0.00731	0.00867	0.0106	0.0135	0.0177	0.0221	0.0264	0.0318
in ethanol	0.0236	0.0272	0.0322	0.0383	0.0459	0.0525	0.0612	0.072	0.082
in ethyl acetate	0.0147	0.0176	0.0209	0.0257	0.0309	0.0384	0.0461	0.0549	0.0643
in ethylene glycol	0.0338	0.039	0.0448	0.0517	0.0595	0.0681	0.0774	0.0882	0.101
in isopropanol	0.00903	0.0108	0.0132	0.0164	0.0198	0.0253	0.0321	0.0392	0.0472
in methanol	0.0265	0.0305	0.036	0.0421	0.0495	0.0578	0.0672	0.0774	0.0888
in n-propanol	0.02	0.0235	0.0281	0.0334	0.0394	0.0458	0.0539	0.0629	0.0723
in water	0.000409	0.000513	0.000649	0.000828	0.00102	0.00124	0.0015	0.0018	0.00208
